What was measured:
L6-myotubes [1] = experiment: Glucose uptake in differentiated L6-myotubes (Biological Example 2); format: cell-based; conditions: read-out: Biological example 2 (GU)
Summary of the method: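 Differentiated L6 myotubes were serum-starved overnight in 0.5% fatty-acid-free BSA and then stimulated with compound or isoprenaline at 1×10^−5 M final. After 1 h 40 min cells were washed and re-dosed in glucose-free medium. Twenty minutes later, uptake of 50 nM ^3H-2-deoxyglucose over 10 min was measured by scintillation counting of NaOH lysates.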

L6-myotubes [2] = experiment: Measurement of intracellular cAMP levels in differentiated L6-myotubes (Biological Example 3); format: cell-based; conditions: 0.25 h
Summary of the method: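 Serum-starved differentiated L6 myotubes stimulated 15 min with test compound at 1×10^−5 M final (isoprenaline as reference) in HBSS with 1% BSA, 5 mM HEPES, 1 mM IBMX, pH 7.4. Cells EtOH-extracted, lysed, and intracellular cAMP measured by AlphaScreen.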

[3] = glucose uptake, compound at 10 μM relative to isoproterenol at 10 μM
[4] = intracellular cAMP, compound at 10 μM relative to isoproterenol at 10 μM
[5] = glucose uptake in differentiated L6-myotubes, compound at 10 μM, activity relative to isoproterenol at 10 μM
[6] = intracellular cAMP in differentiated L6-myotubes, compound at 10 μM, activity relative to isoproterenol at 10 μM

## CCC[C@H]1CCC[C@H]([C@@H](O)c2ccc(F)cc2)N1 [Compound 105]
L6-myotubes [1]; [3]
  Emax at 10 µM: 25 to 50%
L6-myotubes [2]; [4]
  Emax at 10 µM: < 25%

## O[C@@H](CNCCC[C@H]1CC[C@@H](OCc2ccccc2)CC1)c1cccc(F)c1 [Compound 277, (R)-1-(m-fluorophenyl)-2-{3-[(1s,4R)-4-(benzyloxy)cyclohexyl]propylamino}-1-ethanol]
L6-myotubes [1]; [5]
  Emax at 10 µM: 25 to 50%
L6-myotubes [2]; [6]
  Emax at 10 µM: < 25%

## O[C@@H](c1cccc(F)c1)C12CCC(COCc3ccc(OC(F)(F)F)cc3)(CC1)N2 [Compound 487]
L6-myotubes [1]; [5]
  Emax at 10 µM: < 25%
L6-myotubes [2]; [6]
  Emax at 10 µM: < 25%

## CCCCNC[C@H](O)c1ccc(O)cc1 [Compound 9, (R)-2-(butylamino)-1-(p-hydroxyphenyl)-1-ethanol]
L6-myotubes [1]; [3]
  Emax at 10 µM: > 75%
L6-myotubes [2]; [4]
  Emax at 10 µM: < 25%

## CS(=O)(=O)N(Cc1ccccc1)c1ccc(CC23CCC([C@@H](O)c4cccc(F)c4)(CC2)N3)cc1 [Compound 472, (S)-[4-({p-[(benzyl)-N-mesylamino]phenyl}methyl)-7-azabicyclo[[2.2.1]]hept-1-yl](m-fluorophenyl)methanol]
L6-myotubes [1]; [5]
  Emax at 10 µM: 25 to 50%
L6-myotubes [2]; [6]
  Emax at 10 µM: < 25%

## CC1(C)C[C@H]([C@@H](O)c2ccccc2F)N1 [Compound 203, (S)-[(R)-4,4-dimethyl-2-azetidinyl](o-fluorophenyl)methanol]
L6-myotubes [1]; [5]
  Emax at 10 µM: 25 to 50%
L6-myotubes [2]; [6]
  Emax at 10 µM: < 25%

## O[C@@H](c1cncc(F)c1)C12CCC(COCc3ccc(F)cc3)(CC1)N2 [Compound 442, (S)-(4-{[(p-fluorophenyl)methoxy]methyl}-7-azabicyclo[[2.2.1]]hept-1-yl)(5-fluoro-3-pyridyl)methanol]
L6-myotubes [1]; [5]
  Emax at 10 µM: 25 to 50%
L6-myotubes [2]; [6]
  Emax at 10 µM: < 25%

## CC1(C)CCC[C@H]([C@H](O)c2ccccc2F)N1 [Compound 177, (R)-[(R)-6,6-dimethyl-2-piperidyl](o-fluorophenyl)methanol]
L6-myotubes [1]; [3]
  Emax at 10 µM: 50 to 75%
L6-myotubes [2]; [4]
  Emax at 10 µM: < 25%

## O[C@@H](CNCCC[C@H]1CC[C@H](OCc2ccccc2)CC1)c1cccc(F)c1 [Compound 278, (R)-1-(m-fluorophenyl)-2-{3-[(1r,4S)-4-(benzyloxy)cyclohexyl]propylamino}-1-ethanol]
L6-myotubes [1]; [5]
  Emax at 10 µM: 25 to 50%
L6-myotubes [2]; [6]
  Emax at 10 µM: < 25%

## CCC[C@@H]1CCC[C@@H]([C@H](O)c2cccc(O)c2)N1 [Compound 136]
L6-myotubes [1]; [3]
  Emax at 10 µM: > 75%
L6-myotubes [2]; [4]
  Emax at 10 µM: < 25%

## COc1ccc(CCC23CCC([C@@H](O)c4cncc(F)c4)(CC2)N3)cc1 [Compound 541, (S)-(5-fluoro-3-pyridyl){4-[2-(p-methoxyphenyl)ethyl]-7-azabicyclo[[2.2.1]]hept-1-yl}methanol]
L6-myotubes [1]; [5]
  Emax at 10 µM: < 25%
L6-myotubes [2]; [6]
  Emax at 10 µM: < 25%

## CC(C)(NC[C@H](O)c1cccc(F)c1)[C@H]1CC[C@@H](C(=O)O)CC1 [Compound 369]
L6-myotubes [1]; [5]
  Emax at 10 µM: 50 to 75%
L6-myotubes [2]; [6]
  Emax at 10 µM: < 25%

## CC(C)(CC[C@H]1CC[C@H](C(=O)O)CC1)NC[C@H](O)c1cccc(F)c1 [Compound 348, (1R,4r)-4-{3-[(R)-2-(m-fluorophenyl)-2-hydroxyethylamino]-3-methylbutyl} cyclohexanecarboxylic acid]
L6-myotubes [1]; [5]
  Emax at 10 µM: < 25%
L6-myotubes [2]; [6]
  Emax at 10 µM: < 25%

## CCCCNC[C@H](O)c1ccnc(N)n1 [Compound 73, (S)-1-(2-amino-4-pyrimidinyl)-2-(butylamino)-1-ethanol]
L6-myotubes [1]; [3]
  Emax at 10 µM: 25 to 50%
L6-myotubes [2]; [4]
  Emax at 10 µM: < 25%

## CCC[C@H]1CCC[C@H]([C@@H](O)c2ccc(F)c(F)c2)N1 [Compound 65]
L6-myotubes [1]; [3]
  Emax at 10 µM: 25 to 50%
L6-myotubes [2]; [4]
  Emax at 10 µM: < 25%

## CC(C)(C[C@H]1CC[C@@H](NC(=O)C2CCC2)CC1)NC[C@H](O)c1cccc(F)c1 [Compound 448]
L6-myotubes [1]; [5]
  Emax at 10 µM: 50 to 75%
L6-myotubes [2]; [6]
  Emax at 10 µM: < 25%

## COc1ccc(C[C@@H]2CC[C@H]([C@H](O)c3cncc(F)c3)N2)cc1 [Compound 378, (R)-{(2R,5S)-5-[(p-methoxyphenyl)methyl]-2-pyrrolidinyl}(5-fluoro-3-pyridyl)methanol]
L6-myotubes [1]; [5]
  Emax at 10 µM: > 75%
L6-myotubes [2]; [6]
  Emax at 10 µM: < 25%

## CCCC(C)NCC(O)c1ccc(O)c(Cl)c1 (stereo not shown) [Compound 19, 1-(3-chloro-4-hydroxyphenyl)-2-(1-methylbutylamino)-1-ethanol]
L6-myotubes [1]; [3]
  Emax at 10 µM: 25 to 50%
L6-myotubes [2]; [4]
  Emax at 10 µM: < 25%

## CN(C)S(=O)(=O)[C@H]1CC[C@@H](CC(C)(C)NC[C@H](O)c2cncc(F)c2)CC1 [Compound 471]
L6-myotubes [1]; [5]
  Emax at 10 µM: > 75%
L6-myotubes [2]; [6]
  Emax at 10 µM: 50 to 75%

## CC1(C)C[C@H]([C@@H](O)c2cccc(F)c2)N1 [Compound 201]
L6-myotubes [1]; [5]
  Emax at 10 µM: < 25%
L6-myotubes [2]; [6]
  Emax at 10 µM: < 25%

## Oc1ccc(C(O)CNCC2CC2)cc1 (stereo not shown) [Compound 3, p-{2-[(cyclopropylmethyl)amino]-1-hydroxyethyl}phenol]
L6-myotubes [1]; [3]
  Emax at 10 µM: 50 to 75%
L6-myotubes [2]; [4]
  Emax at 10 µM: < 25%

## CC(=O)N[C@H]1CC[C@@H](CC(C)(C)NC[C@@H](O)c2cccc(C#N)n2)CC1 [Compound 423]
L6-myotubes [1]; [5]
  Emax at 10 µM: < 25%
L6-myotubes [2]; [6]
  Emax at 10 µM: < 25%

## CC1(C)CCC[C@H]([C@@H](O)c2cccc(O)c2)N1 [Compound 103]
L6-myotubes [1]; [3]
  Emax at 10 µM: 25 to 50%
L6-myotubes [2]; [4]
  Emax at 10 µM: < 25%

## CC(C)(C[C@H]1CC[C@H](N)CC1)NC[C@H](O)c1cncc(F)c1 [Compound 359, (R)-2-{1,1-dimethyl-2-[(1r,4R)-4-aminocyclohexyl]ethylamino}-1-(5-fluoro-3-pyridyl)-1-ethanol]
L6-myotubes [1]; [5]
  Emax at 10 µM: > 75%
L6-myotubes [2]; [6]
  Emax at 10 µM: < 25%

## COC(=O)[C@H]1CC[C@H](C(C)(C)NC[C@H](O)c2cncc(F)c2)CC1 [Compound 370, (1R,4r)-8-[(R)-2-(5-fluoro-3-pyridyl)-2-hydroxyethylamino]-7-methoxy-p-menthan-7-one]
L6-myotubes [1]; [5]
  Emax at 10 µM: > 75%
L6-myotubes [2]; [6]
  Emax at 10 µM: < 25%

## COc1ccc(C[C@@H]2CC[C@H]([C@@H](O)c3cccc(F)c3)N2)cc1 [Compound 372, (S)-{(2R,5S)-5-[(p-methoxyphenyl)methyl]-2-pyrrolidinyl}(m-fluorophenyl)methanol]
L6-myotubes [1]; [5]
  Emax at 10 µM: > 75%
L6-myotubes [2]; [6]
  Emax at 10 µM: < 25%

## CC1(C)CCC[C@H]([C@H](O)c2cccc(F)c2)N1 [Compound 102]
L6-myotubes [1]; [3]
  Emax at 10 µM: 50 to 75%
L6-myotubes [2]; [4]
  Emax at 10 µM: < 25%

## CCC[C@H]1CCC[C@H]([C@@H](O)c2cncc(F)c2)N1 [Compound 139]
L6-myotubes [1]; [3]
  Emax at 10 µM: < 25%
L6-myotubes [2]; [4]
  Emax at 10 µM: < 25%

## CO[C@H]1CC[C@H](C[C@@H]2CC[C@H]([C@@H](O)c3ccccc3F)N2)CC1 [Compound 336, (S)-[(2R,5S)-5-{[(1r,4S)-4-methoxycyclohexyl]methyl}-2-pyrrolidinyl] (o-fluorophenyl)methanol]
L6-myotubes [1]; [5]
  Emax at 10 µM: 25 to 50%
L6-myotubes [2]; [6]
  Emax at 10 µM: < 25%

## CNS(=O)(=O)[C@H]1CC[C@@H](CC(C)(C)NC[C@H](O)c2cccc(F)c2)CC1 [Compound 477, (R)-2-{1,1-dimethyl-2-[(1s,4S)-4-(methylaminosulfonyl)cyclohexyl]ethylamino}-1-(m-fluorophenyl)-1-ethanol]
L6-myotubes [1]; [5]
  Emax at 10 µM: 50 to 75%
L6-myotubes [2]; [6]
  Emax at 10 µM: < 25%

## CC(=O)N[C@H]1CC[C@H](C[C@@H]2CC[C@H]([C@H](O)c3cccc(F)c3)N2)CC1 [Compound 485]
L6-myotubes [1]; [5]
  Emax at 10 µM: 50 to 75%
L6-myotubes [2]; [6]
  Emax at 10 µM: < 25%

## CCOC(=O)CO[C@H]1CC[C@@H](C(C)(C)NC[C@H](O)c2cccc(F)c2)CC1 [Compound 407, ethyl[[(1S,4s)-4-{1-[(R)-2-(m-fluorophenyl)-2-hydroxyethylamino]-1-methylethyl}cyclohexyloxy]]acetate]
L6-myotubes [1]; [5]
  Emax at 10 µM: 50 to 75%
L6-myotubes [2]; [6]
  Emax at 10 µM: < 25%

## CO[C@H]1CC[C@H](C[C@@H]2CC[C@H]([C@@H](O)c3cccc(F)c3)N2)CC1 [Compound 325, (S)-[(2R,5S)-5-{[(1r,4S)-4-methoxycyclohexyl]methyl}-2-pyrrolidinyl](m-fluorophenyl)methanol]
L6-myotubes [1]; [5]
  Emax at 10 µM: > 75%
L6-myotubes [2]; [6]
  Emax at 10 µM: < 25%

## CC(C)(C)NC[C@H](O)c1ccc(Cl)cn1 [Compound 147, (S)-2-(tert-butylamino)-1-(5-chloro-2-pyridyl)-1-ethanol]
L6-myotubes [1]; [3]
  Emax at 10 µM: 25 to 50%
L6-myotubes [2]; [4]
  Emax at 10 µM: < 25%

## COc1ccc(CCC23CCC([C@H](O)c4cncc(F)c4)(CC2)N3)cc1 [Compound 542, (R)-(5-fluoro-3-pyridyl){4-[2-(p-methoxyphenyl)ethyl]-7-azabicyclo[[2.2.1]]hept-1-yl}methanol]
L6-myotubes [1]; [5]
  Emax at 10 µM: 50 to 75%
L6-myotubes [2]; [6]
  Emax at 10 µM: 25 to 50%

## CN(C)S(=O)(=O)[C@H]1CC[C@@H](CC(C)(C)NC[C@H](O)c2cccc(F)c2)CC1 [Compound 470]
L6-myotubes [1]; [5]
  Emax at 10 µM: > 75%
L6-myotubes [2]; [6]
  Emax at 10 µM: 25 to 50%

## CC(=O)N[C@H]1CC[C@@H](CNC[C@H](O)c2cccc(F)c2)CC1 [Compound 307]
L6-myotubes [1]; [5]
  Emax at 10 µM: 50 to 75%
L6-myotubes [2]; [6]
  Emax at 10 µM: < 25%

## CC(=O)N[C@H]1CC[C@@H](CC(C)(C)NC[C@H](O)c2cccc(C(F)(F)F)n2)CC1 [Compound 462]
L6-myotubes [1]; [5]
  Emax at 10 µM: 25 to 50%
L6-myotubes [2]; [6]
  Emax at 10 µM: < 25%

## CCC[C@@H](C)NC[C@H](O)c1cccc(F)c1 [Compound 50, (R)-2-[(R)-1-methylbutylamino]-1-(m-fluorophenyl)-1-ethanol]
L6-myotubes [1]; [3]
  Emax at 10 µM: > 75%
L6-myotubes [2]; [4]
  Emax at 10 µM: < 25%

## CCC[C@H]1CCC[C@H]([C@@H](O)c2cccc(F)c2)N1 [Compound 70]
L6-myotubes [1]; [3]
  Emax at 10 µM: 50 to 75%
L6-myotubes [2]; [4]
  Emax at 10 µM: < 25%

## COC(=O)[C@H]1CC[C@H](CCC(C)(C)NC[C@H](O)c2cccc(F)c2)CC1 [Compound 350, methyl (1R,4r)-4-{3-[(R)-2-(m-fluorophenyl)-2-hydroxyethylamino]-3-methylbutyl} cyclohexanecarboxylate]
L6-myotubes [1]; [5]
  Emax at 10 µM: > 75%
L6-myotubes [2]; [6]
  Emax at 10 µM: < 25%

Source: patent publication US20260216294A1, “BETA 2-ADRENERGIC RECEPTOR AGONISTS FOR TREATMENT OR PREVENTION OF MUSCLE WASTING” (ATROGI AB, priority 2023, published 2026)
